# Reference: article PMC11674305, “Inhibition of Neural Crest Cell Migration by Strobilurin Fungicides and Other Mitochondrial Toxicants” (Cells, 2024)
# Values joined by “and” are separate entries in the source; they are usually repeats but may differ in a detail not shown here. Equal entries are not always repeated. Where two headings read alike, the source gives them in different places.
# Columns and labels:
# Type in all cases: cell-based, human
# neural crest cells (NCC) [1] = test: Transwell migration assay (FBS chemoattractant, 6 h); conditions: for effect on transwell migration: negative controls, 100 µM
# Description: Cells were seeded at a density of 50,000 cells/well (150,000 cells/cm^2) into the upper chamber (insert) of the 96-well transwell plates (pore size 8 μm, polycarbonate membrane, Corning, Glendale, AZ, USA). The cells were stimulated to migrate through the membrane by medium supplemented with 5% of the chemoattractant fetal bovine serum (FBS) (PAA Laboratories, Pasching, Austria) in the lower chamber (reservoir). For testing of migration inhibition upon compound treatment, compounds were used at a concentration of BMC10 (V) of prior cMINC testing. Three technical replicates per condition were used. As a control for “unstimulated” migration, medium without any chemoattractant was tested. As an endpoint specific control for “inhibited” migration, CytoD with a concentration of 200 nM was used. After 6 h incubation time, the medium was aspirated, and reservoirs were washed with DPBS. Afterwards, reservoirs were filled with EDTA dissociation solution (DPBS supplemented with 0.1% 0.5 M EDTA UltraPure pH 8.0 (Thermo Fisher Scientific, Waltham, MA, USA), and 0.18% NaCl) containing 0.25 μL/mL calcein-AM and incubated for 30 min at 37 °C. The plates were then centrifuged at 300× g for 5 min (1200 rpm, Heraeus Multifuge 1 S-R, ThermoScientific) to remove migrated cells from the membrane. The tray with 96 wells of permeable inserts was removed, and the receiver plate was measured in the spectrophotometer (TECAN, Männedorf, Switzerland) with an emission wavelength of 520 nm. After subtraction of the blank values, the number of migrated cells was normalized to that of cells stimulated with FBS.
# To perform the experiments under mitochondria-dependent conditions, the cells were handled exactly in the same way, but the medium was adapted. The N2-S medium was adjusted, so that no glucose was present but galactose. The medium consisted of SILAC^TM Advanced DMEM/-F12 FLEX (Gibco/Fisher Scientific, Hampton, NH, USA), 15 μg/mL insulin, 400 μM GlutaMAX, 0.7 mM L-Arginine, 0.5 mM L-Lysine, 21.5 µM Phenol Red, 20 nM progesterone, 100 μM putrescine and 30 nM selenium, 92.5 μg/mL apotransferrin, 4.7 mg/mL galactose (18 mM). The cytokines 20 ng/mL EGF and 20 ng/mL FGF2 were always freshly added to each run.
# neural crest cells (NCC) [2] = test: cMINC (UKN2) assay: circular migration of neural crest cells, with viability; conditions: for Migration / Viability: Pre-Screen 1, single concentration 1:1000 of stock, in most cases 100 μM; for Ratio: migration/cytotoxicity ratio, hit requires ≥ 1.3, HTC used where no viability effect; for BMC25 (M): migration
# Description: The research group initially developed the first version of the test in 2012 [40]. The test has been further improved and characterized. To perform the cMINC assay, NCCs were thawed in N2-S Medium and seeded on the day of migration-1 (DoM-1) on a 96-well polystyrene plate (Corning, Glendale, AZ, USA) around stoppers, to create a cell-free area of 2 mm diameter (Platypus Technologies, Madison, WI, USA). The cells were resuspended in N2-S Medium supplemented with […] of the cytokines EGF and FGF, and then counted and seeded around the stoppers at a density of 95,000 cells/cm^2. After 24 h, the stoppers were removed, and the medium was exchanged. The removal of the stoppers initiates migration of the NCCs into the cell-free area. For the treatment, the 5x-concentrated toxicant solution was added to the medium 24 h after stopper removal.
# On day 2, cells were stained with 533 nM calcein-AM and 1 μg/mL H-33342 (both from Sigma, Steinheim, Germany) and observed using two different channels on the Cellomics ArrayScan VTI imaging microscope (Thermo Fisher, Pittsburgh, PA, USA) to assess viability and migration. For the migration, four pictures were taken in the region of interest (ROI) (5× magnification objective). Migration data were obtained using the software “Ringassay” (http://invitrotox.uni-konstanz.de/ (accessed on 3 November 2024)), which can estimate the previously cell-free area and count the number of H-33342 and calcein-AM double-positive cells. Cell viability was assessed by taking four pictures outside of the ROI with 10× magnification objective. Viable cells were defined as H-33342 and calcein-AM double-positive cells and calculated by an automatic algorithm of the ArrayScan VTI 700 Series software as described earlier. […] Each plate included wells for testing of negative (0.1% DMSO solvent) and positive controls (200 nM cytochalasin D) in addition to the wells for blinded samples. The data from control wells were used as acceptance criteria of the assay. […] Renormalization of the concentration–response curves was performed after a visual inspection that the two lowest test-concentration data points are in the no-effect range. The average response (relative to solvent control) of the lowest two test concentrations was calculated, and all other data points of the same curve were divided by this average value. The calculations of the benchmark concentrations 10 for viability (BMC10 (V)) and 25 for migration (BMC25 (M)) were performed with the online available BMC software (http://invitrotox.uni-konstanz.de/ (accessed on 4 November 2024)).
# neural crest cells (NCC) [3] = test: Seahorse oxygen consumption rate (mitochondrial stress test); conditions: at BMC10 (V) of cMINC, after basal respiration recording
# Description: The Seahorse bioanalyzer simultaneously measures cellular oxygen consumption rates (OCR) and extracellular acidification rates (ECAR). Therefore, NCCs were seeded at least two days prior to the assays at a density of 80,000 cells/well on Seahorse XF96 V3 PS Cell Culture Microplates (Agilent, Santa Clara, CA, USA) in either glucose medium or galactose medium. After 24 h, the medium was exchanged. For the real-time ATP production rate and mitochondrial stress assay, the cartridge was hydrated at 0% CO2 and 37 °C, and the seahorse was turned on to stabilize the temperature one day prior. The medium was changed to Seahorse XF DMEM Medium (Agilent, Santa Clara, CA, USA) supplemented with 2 mM L-glutamine, 1 mM pyruvate and 18 mM glucose or galactose 1 h before the start of the assays. Directly before the start of the assay, the medium was exchanged again. The sensor cartridge was loaded with the test compounds anchored to the BMC10 (V) of the cMINC screen and the recommended concentrations of calibration compounds for a mitochondrial stress test. These were 5 μM oligomycin, 15 μM carbonyl cyanide p-trifluoro methoxyphenylhydrazone (FCCP) and 5 μM rotenone plus 5 μM antimycin A. Additionally, 1 μg/mL H-33342 was added to the rotenone and antimycin A injection to perform afterwards a cell count (Cellomics, Waltham, MA, USA), to which the data were normalized. Six technical replicates were used for control conditions, and three technical replicates were used for other samples. The software Seahorse Analytics (Agilent, Santa Clara, CA, USA) was used for the evaluation (https://seahorseanalytics.agilent.com (accessed on 30 October 2024)).
# neural crest cells (NCC) [4] = test: Intracellular ATP measurement (CellTiterGlo); conditions: at BMC10 (V) of cMINC; for ATP levels: after 60 min
# Description: Cells were seeded at a density of 20,000 cells/well. The NCCs were treated with the BMC10 (V) of the cMINC screen for one hour, six hours or 24 h. Then, a CellTiterGlo-Triton mix was prepared. Therefore, a 0.5% Triton solution in PBS was prepared, and the commercial reagent mix CellTiterGlo 2.0 (Promgea, Madison, WI, USA) was added in a 1:1 ratio. An amount of 50 µL/well of the mix was added to 100 µL of medium. The plate was shaken for two minutes, and 100 µL of the cell mixture was transferred to a white measurement plate. For the blank value, only medium with the mix was measured. Luminescence data of samples were normalized to DMSO solvent controls, and the ATP data are given in % relative to “untreated cells”.
# [5] = viability, primary screen, 24 h exposure, * = no effect up to highest tested concentration
# [6] = Homo sapiens, 24 h, primary screen, 24 h exposure, read-out: BMC25
SMILES,Migration (neural crest cells (NCC) [2]),Viability (neural crest cells (NCC) [2]),Ratio (neural crest cells (NCC) [2]),BMC10 (V) (neural crest cells (NCC) [2]; [5]),effect on oxygen consumption rate (OCR) after injection (neural crest cells (NCC) [3]),BMC25 (M) (neural crest cells (NCC) [2]; [6]),also measured
"C=C1[C@@H](C)[C@H]2[C@H](Cc3ccccc3)NC(=O)[C@]23[C@H](OC(C)=O)/C=C/[C@@](C)(O)C(=O)[C@@H](C)C/C=C/[C@H]3[C@@H]1O [cytochalasin D, Cytochalasin D]",,,,,,,"reduced migration (neural crest cells (NCC) [1]; 200 nM, positive control): 75%"
"C=C(C)[C@H]1Cc2c(ccc3c2O[C@@H]2COc4cc(OC)c(OC)cc4[C@@H]2C3=O)O1 [Rotenone, rotenone]",0 % of control,0 % of control,1.9,0.1 µM,,,"IC25 (neural crest cells (NCC) [2]; Homo sapiens, 24 h, read-out: BMC25 (M)): 6e-08 M"
"CC(C)(C)c1ccc(CSc2cnn(C(C)(C)C)c(=O)c2Cl)cc1 [Pyridaben, pyridaben]",58 % of control,,1.8,,completely shut down the mitochondrial respiration,4.7e-05 M,"BMC10 (V) (neural crest cells (NCC) [2]; human, 24 h): 83 µM"
"Cc1ccc(-c2c(Cl)nc(C#N)n2S(=O)(=O)N(C)C)cc1 [Cyazofamid, cyazofamid]",29 % of control,,2.6,,the OCR increased continuously,7.8e-06 M,"BMC10 (V) (neural crest cells (NCC) [2]; human, 24 h): 20 µM"
"O=[N+]([O-])c1cc(C(F)(F)F)c(Cl)c([N+](=O)[O-])c1Nc1ncc(C(F)(F)F)cc1Cl [Fluazinam, fluazinam]",0 % of control,2 % of control,2.0,0.8 µM,no decrease in OCR,4e-07 M,decline of ATP (neural crest cells (NCC) [4]; after 1 h): > 25%; decline of ATP (neural crest cells (NCC) [4]; after 24 h): > 90%
"Cc1nn(C)c(Oc2ccccc2)c1C=NOCc1ccc(C(=O)OC(C)(C)C)cc1 [Fenpyroximate, fenpyroximate]",38 % of control,95 % of control,1.9,7 µM and 6.6 µM,completely shut down the mitochondrial respiration,3e-06 M,ATP levels (neural crest cells (NCC) [4]): did not decrease; decrease in ATP levels (neural crest cells (NCC) [4]; after 6 h): > 25%
"CO/N=C(/C(=O)OC)c1ccccc1COc1ccccc1C [Kresoxim-methyl, kresoxim-methyl]",72 % of control,33 % of control,1.6,43 µM,,2.7e-05 M,
"CO/N=C(/C1=NOCCO1)c1ccccc1Oc1ncnc(Oc2ccccc2Cl)c1F [Fluoxastrobin, fluoxastrobin]",60 % of control,95 % of control,4.6,> 100 µM,,2e-05 M,effect on viability in the tested concentration range (neural crest cells (NCC) [2]; primary screen): did not reduce viability at all
"COC(=O)N(OC)c1ccccc1COc1ccn(-c2ccc(Cl)cc2)n1 [Pyraclostrobin, pyraclostrobin]",72 % of control,97 % of control,2.6,44 µM,,1.7e-05 M,ATP levels (neural crest cells (NCC) [4]): did not decrease
"O=C1O[C@H]([C@@H](O)CO)C(O)=C1O [L-ascorbic acid, reference compound]",100 % of control,,,,,,effect on transwell migration (neural crest cells (NCC) [1]): no inhibited migration was observed
"CCOCn1c(-c2ccc(Cl)cc2)c(C#N)c(Br)c1C(F)(F)F [Chlorfenapyr, chlorfenapyr]",0 % of control,,1.3,,no decrease in OCR,5.1e-06 M,"decline of ATP (neural crest cells (NCC) [4]; after 1 h): > 25%; decline of ATP (neural crest cells (NCC) [4]; after 24 h): > 90%; BMC10 (V) (neural crest cells (NCC) [2]; human, 24 h): 6.8 µM"
"CO/C=C(/C(=O)OC)c1ccccc1Oc1cc(Oc2ccccc2C#N)ncn1 [Azoxystrobin, azoxystrobin]",59 % of control,95 % of control,3.5,> 100 µM,,,"ATP levels (neural crest cells (NCC) [4]): did not decrease; BMC25 (M) (neural crest cells (NCC) [2]; primary screen, 24 h exposure): 2.9e-05 M and 3e-05 M; effect on viability in the tested concentration range (neural crest cells (NCC) [2]; primary screen): did not reduce viability at all"
"O=C1NS(=O)(=O)c2ccccc21 [Saccharin sodium hydrate, reference compound]",103 % of control,,,,,,effect on transwell migration (neural crest cells (NCC) [1]): no inhibited migration was observed
"CON=C(C(=O)OC)c1ccccc1CON=C(C)c1cccc(C(F)(F)F)c1 [Trifloxystrobin, trifloxystrobin]",85 % of control,,1.4,,,1.3e-05 M,"BMC10 (V) (neural crest cells (NCC) [2]; human, 24 h): 18 µM"
